Measurements as given in patent US5362728A, “4,5-bridged-2,3,4,5-tetrahydro-1H-3-benzazepine-7-ols and derivatives and compositions and methods employing such compounds” (Schering Corporation, priority 1992, dated 1994).
Where two headings read alike, the source gives them in different places.

Experiments:
squirrel monkey = assay: Squirrel monkey conditioned avoidance response (CAR) test; assay type: in vivo; details: Primates, po, read-out: CAR(MED) Sq. Monkey @ 1 hr
Description: SQUIRREL MONKEY CONDITIONED AVOIDANCE RESPONSE (CAR) TEST
This test is designed to measure the potency of candidate compounds in a primate species.
Male or female squirrel monkeys weighing 800-1200 g housed one per cage are utilized. Initially each monkey is taught to terminate a 3 mA electric shock delivered through the grid floor of the test cage and an overlapping tone by depressing a lever in the cage.
In the second phase of the testing, a ten second tone is turned on prior to the shock component. A lever press during the sounding of the tone terminates the tone and prevents the occurrence of the shock component and is denoted as an "avoidance".
The compound testing is commenced after three consecutive days of re-testing. […] The monkey must achieve at least an 85% correct avoidance before drug testing commences. If this minimal avoidance level is achieved, the next day the monkey is orally dosed or injected with the subject compounds in the appropriate vehicle and the number of avoidances are recorded. An animal is defined as having been "affected" by any drug treatment if there is a 50% loss of avoidance behavior relative to the performance of the animal when only the vehicle is injected. The minimal effective dose (MED) is defined as that dose producing an effect in at least 50% of the animals.
A test may be conducted to determine the effective potency of a compound in accordance with the present invention by comparing a compound of the invention to a known compound, (R)-(+)-8-chloro-2,3,4,5-tetrahydro-3-methyl-5-phenyl-1H-3-benzazepin-7-olhemimaleate, denoted as Compound B (Sch 23390). A compound of the invention administered 60 minutes prior to the test is compared to compound B administered 30 minutes prior to test.

dopamine D-1 receptor = target: T1, dopamine D-1 receptor (Rattus norvegicus, UniProt P18901); assay: Competitive inhibition assay, 3H-SCH 23390 binding (D-1), rat striatal tissue; parameters: species or system rat (male Sprague-Dawley)
T1 construct: Striatal tissue is excised, pooled, and homogenized; from tissue; host or cells: rat striatum, washed membrane homogenate
T1 sequence (P18901 whole entry): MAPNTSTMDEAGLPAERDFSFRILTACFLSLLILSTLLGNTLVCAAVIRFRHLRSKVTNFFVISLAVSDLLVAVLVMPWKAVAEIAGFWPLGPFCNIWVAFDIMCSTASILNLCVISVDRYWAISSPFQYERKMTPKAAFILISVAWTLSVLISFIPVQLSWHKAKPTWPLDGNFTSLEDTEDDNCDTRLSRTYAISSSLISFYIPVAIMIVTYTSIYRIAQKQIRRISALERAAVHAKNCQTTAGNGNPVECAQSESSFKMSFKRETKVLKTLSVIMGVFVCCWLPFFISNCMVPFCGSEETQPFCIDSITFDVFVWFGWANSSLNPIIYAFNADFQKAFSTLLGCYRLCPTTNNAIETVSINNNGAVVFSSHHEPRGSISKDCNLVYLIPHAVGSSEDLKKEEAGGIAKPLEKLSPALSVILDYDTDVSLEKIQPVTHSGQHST
Description: (§1) A methodology for characterization of D-1 and D-2 receptor binding and an interpretation of the data are described by Billard et al., Life Sciences 35, 1885 (1984) in which the binding of the benzazepine (R)-(+)-8-chloro-2,3,4,5-tetrahydro-3-methyl-5-phenyl-1H-3-benzazepin-7-olhemimaleate (SCH 23390) to the dopamine D-1 receptor is characterized. A selectivity for D-1 receptor binding as compared to D-2 receptor binding .is believed to confer the therapeutic advantage of avoiding troublesome and potentially irreversible neurological side effects associated with D-2 receptor occupancy.
(§2) Tritiated SCH 23390 and tritiated spiperone (a potent D-2 receptor ligand) are obtained as described in the Billard et al. reference supra and serially diluted in 0.05M Tris buffer, pH 7.4, as required. Compounds of this invention are synthesized as disclosed herein and diluted in 0.05M Tris buffer, pH 7.4, as required.
(§3) Male Sprague-Dawley rats (200 to 250 g) from Charles River Breeding Laboratories, Mass. are used to obtain brain tissue. The rats are humanely sacrificed and their brains removed and placed on ice. Striatal tissue is excised, pooled, and homogenized (Brinkman Polytron, 10 sec) in 100 volumes (w/v) of ice cold 50 mM Tds buffer, pH 7.4 (at 25° C.). The homogenate is centrifuged at 20,000 xg for 10 min. The resultant pellet is rehomogenized in Tris buffer and centrifuged again. The final pellet is resuspended in 50 mM Tris buffer pH 7.4 containing 120 mM NaCl, 5 mM KCl, 2 mM CaCl2, and 1 mM MgCl2.
(§4) Polypropylene incubation tubes receive 100 μl of the individual test compounds at vadous concentrations dissolved or suspended in 0.05M Tris, pH 7.4 containing 4 mg/ml methylcellulose, 100 μl of a solution of ^3 H-SCH 23390 in Tris buffer (final reaction mixture concentration=0.3 nM) or 100 μl of a solution of ^3 H-spiperone in Tris buffer (final concentration=0.2 nM) and 800 μl of tissue suspension (ca. 3 mg/assay). Tubes are incubated at 37° C. for 15 minutes and rapidly vacuum filtered through Whatman GF/B filters and rinsed 4 times with 4 ml of ice cold 50 mM Tds buffer, pH 7.4. The filters are transferred to scintillation vials, equilibated with 10 ml of scintillant (Scintosol, Isolab, Inc.) for 16 hours at 25° C. and the radioactivity determined in a liquid scintillation counter, Ki values are determined as described by Billard et al. using the relationship Kj = IC50 /(1+([L]/KD)) wherein IC50 =concentration of test drug necessary to displace 50% of specifically bound ^3 H-Sch 23390, [L]=concentration of radioligand used in the assay, and KD =dissociation constant.

D-2 receptor = target: T2, D-2 receptor (Rattus norvegicus, UniProt P61169); assay: Competitive inhibition assay, 3H-spiperone binding (D-2), rat striatal tissue; parameters: species or system rat (male Sprague-Dawley)
T2 construct: Striatal tissue is excised, pooled, and homogenized; from tissue; host or cells: rat striatum, washed membrane homogenate
T2 sequence (P61169 whole entry): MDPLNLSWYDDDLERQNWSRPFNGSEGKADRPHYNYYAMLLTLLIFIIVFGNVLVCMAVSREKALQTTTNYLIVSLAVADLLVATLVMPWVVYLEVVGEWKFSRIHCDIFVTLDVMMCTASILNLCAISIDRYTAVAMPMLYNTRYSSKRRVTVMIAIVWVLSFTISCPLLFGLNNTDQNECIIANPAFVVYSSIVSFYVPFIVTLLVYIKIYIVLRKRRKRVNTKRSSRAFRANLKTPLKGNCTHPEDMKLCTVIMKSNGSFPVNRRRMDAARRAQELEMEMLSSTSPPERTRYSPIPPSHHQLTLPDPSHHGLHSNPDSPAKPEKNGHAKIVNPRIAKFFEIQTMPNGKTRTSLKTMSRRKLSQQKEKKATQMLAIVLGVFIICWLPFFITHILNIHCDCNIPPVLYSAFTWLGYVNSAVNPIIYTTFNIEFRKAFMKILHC
Description: as §1, §2, §3, §4

[1] = Col. 9, p.o., 1 hr, minimal effective dose = dose producing an effect in at least 50% of the animals
[2] = Col. 7, 3H-SCH 23390 0.3 nM, rat striatum, 37° C., 15 min, pH 7.4, read-out: Ki (nM) 3H-Sch23390
[3] = Col. 8, 3H-spiperone 0.2 nM, rat striatum, 37° C., 15 min, pH 7.4, read-out: Ki (nM) 3H-Spip

SMILES	minimal effective dose (squirrel monkey; [1]) [mg/kg]	Ki (dopamine D-1 receptor; [2]) [nM]	Ki (D-2 receptor; [3]) [nM]	minimal effective dose (squirrel monkey; 1 h) [mg/kg]	Ki (dopamine D-1 receptor) [nM]	Ki (D-2 receptor) [nM]
C[C@H]1CC[C@@H]2[C@@H](C1)c1cc(O)c(Cl)cc1CCN2C (relative stereo)	> 10	70	> 10000			
CN1CCc2ccc(O)cc2[C@@H]2CCC[C@H]21 (relative stereo)		335	2320			
CN1CCc2cc(Cl)c(O)cc2[C@@H]2CCC[C@H]21 (relative stereo)	> 10	2.8	380			
CCCCC(=O)Oc1cc2c(cc1Cl)CCN(C)C1CCCC21 (centres unmarked)		24	177			
Oc1cc2c(cc1Cl)CCN[C@@H]1CCC[C@@H]21 (relative stereo)		96	1300			
C[C@H]1CC[C@@H]2[C@@H]1c1cc(O)c(Cl)cc1CCN2C (relative stereo)	> 10	3	350			
Cc1ccc(NC(=O)Oc2cc3c(cc2Cl)CCN(C)[C@@H]2CCC[C@@H]32)c(C)c1 (relative stereo)				> 3	7.7	428
CC(C)c1ccc(NC(=O)Oc2cc3c(cc2Cl)CCN(C)[C@@H]2CCC[C@@H]32)cc1 (relative stereo)					5.4	430
Cc1cc2c(cc1O)[C@H]1[C@@H](CC[C@@H]1C)N(C)CC2 (relative stereo)	3	14	840			
Cc1cc2c(cc1O)[C@@H]1CCCC[C@H]1N(C)CC2 (relative stereo)	> 10	70	71000			
